Data as given in patent US20240391862A1, “(1,4,5-TRISUBSTITUTED-1H-PYRAZOL-3-YL)OXY-2-ALKOXY ALKYL ACIDS AND THEIR DERIVATIVES, THEIR SALTS AND THEIR USE AS HERBICIDAL AGENTS” (Bayer AKtiengesellschaft, priority 2021, published 2024).

Assays:
[1] = test system: ORYSA; test: Post-emergence herbicidal effect and crop plant compatibility, greenhouse pot test; assay type: in vivo, Oryza sativa; settings: for Post-emergence effect at 320 g/ha against ORYSA in %: one-leaf stage, rated visually after about 3 weeks vs untreated controls; for Post-emergence effect against ORYSA: visual rating about 3 weeks after treatment, crop plant
Text: • ALOMY: Alopecurus myosuroides SETVI: Setaria viridis • AVEFA: Avena fatua POLCO: Fallopia convolvulus • AMARE: Amaranthus retroflexus ECHCG: Echinochloa crus-galli • LOLRJ: Lolium rigidum STEME: Stellaria media • VERPE: Veronica persica MATIN: Tripleurospermum inodorum • DIGSA: Digitaria sanguinalis ABUTH: Abutylon threophrasti • TRZAS: Triticum aestivum VIOTR: Viola tricolor • BRSNW: Brassica napus ZEAMX: Zea mays • PHBPU: Ipomoea purpurea GLXMA: Glycine max • ORYSA: Oryza sativa HORMU: Hordeum murinum
Seeds of monocotyledonous and dicotyledonous weeds and crop plants are placed in sandy loam in plastic or organic planting pots, covered with soil and cultivated in a greenhouse under controlled growth conditions. 2 to 3 weeks after sowing, the trial plants are treated at the one-leaf stage. The compounds of the invention, formulated in the form of wettable powders (WP) or as emulsion concentrates (EC), are then sprayed onto the green parts of the plants as aqueous suspension or emulsion with addition of 0.5% additive at a water application rate of 600 l/ha (converted). After the test plants have been kept in the greenhouse under optimum growth conditions for about 3 weeks, the activity of the preparations is rated visually in comparison to untreated controls. For example, 100% activity=the plants have died, 0% activity=like control plants.
Tables 20a to 38c below show the effects/crop compatibilities of selected compounds of the general formula (I) on various harmful plants at an application rate corresponding to 20 to 320 g/ha, which were obtained by the trial procedure specified above.

[2] = test system: TRZAS; test: as above; assay type: in vivo, Triticum aestivum; settings: 20 g/ha, one-leaf stage, rated visually after about 3 weeks vs untreated controls
Summary of the method: (§1)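 Greenhouse pot test: weeds and crops sown in sandy loam, sprayed post-emergence at one-leaf stage (2–3 weeks after sowing) with WP or EC formulations plus 0.5% additive at 600 l/ha water, rates 20–320 g/ha. Visual rating about 3 weeks later versus untreated controls (100% = dead, 0% = as control).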

[3] = test system: ZEAMX; test: as above; assay type: in vivo, Zea mays; settings: one-leaf stage, rated visually after about 3 weeks vs untreated controls; for plant injury at 80 g/ha: read-out: Post-emergence effect at 80 g/ha against ZEAMX in %
Summary of the method: as §1

[4] = test system: VIOTR; test: Post-emergence herbicidal effect, greenhouse pot test; assay type: in vivo, Viola tricolor
Summary of the method: (§2)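 Weeds sown in sandy loam, greenhouse-grown 2–3 weeks, then sprayed at one-leaf stage with WP or EC formulations in water plus 0.5% additive at 600 l/ha. Rates 20 to 320 g/ha. Visual rating after about 3 weeks versus untreated controls (100% = plants dead, 0% = like control).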

[5] = test system: PHBPU; test: as above; assay type: in vivo, Ipomoea purpurea
Summary of the method: as §2

[6] = test system: POLCO; test: as above; assay type: in vivo, Fallopia convolvulus
Summary of the method: as §2

[7] = test system: DIGSA; test: as above; assay type: in vivo, Digitaria sanguinalis; settings: visual rating about 3 weeks after treatment
Summary of the method: as §2

[8] = test system: ECHCG; test: as above; assay type: in vivo, Echinochloa crus-galli
Summary of the method: as §2

[9] = test system: AMARE; test: as above; assay type: in vivo, Amaranthus retroflexus; settings: visual rating about 3 weeks after treatment
Summary of the method: as §2

[10] = test system: SETVI; test: as above; assay type: in vivo, Setaria viridis
Summary of the method: as §2

[11] = test system: VERPE; test: as above; assay type: in vivo, Veronica persica
Summary of the method: as §2

[12] = test system: LOLRI; test: as above; assay type: in vivo, Lolium rigidum; settings: 320 g/ha
Summary of the method: as §2

[13] = test system: AVEFA; test: as above; assay type: in vivo, Avena fatua; settings: 320 g/ha, visual rating about 3 weeks after treatment
Summary of the method: as §2

[14] = test system: MATIN; test: as above; assay type: in vivo, Tripleurospermum inodorum
Summary of the method: as §2

[15] = test system: ALOMY; test: as above; assay type: in vivo, Alopecurus myosuroides; settings: 320 g/ha, visual rating about 3 weeks after treatment
Summary of the method: as §2

[16] = test system: ABUTH; test: as above; assay type: in vivo, Abutilon theophrasti; settings: visual rating about 3 weeks after treatment
Summary of the method: as §2

SMILES: COC(Oc1nn(-c2ccccc2F)c(-c2ccc(F)nc2)c1Br)C(=O)O (stereo not shown) [Example I-12]
- Post-emergence effect at 320 g/ha against ORYSA in % [1]: 20%
- Post-emergence effect at 20 g/ha against TRZAS in % [2]: 0%
- Post-emergence effect at 20 g/ha against ZEAMX in % ([3]; 20 g/ha): 0%
- plant injury at 80 g/ha ([3]; Zea mays, 504 h): 20%

SMILES: COC(=O)C(OC)Oc1nn(-c2ccc(F)nc2)c(-c2ccc(F)nc2)c1Br (stereo not shown) [Example I-15]
- Post-emergence effect at 320 g/ha against ORYSA in % [1]: 10%
- pest or weed control at 320 g/ha ([4]; Viola tricolor, 504 h, 320 g/ha, read-out: Post-emergence effect against VIOTR in %): 80%
- percent crop injury (phytotoxicity) to wheat, post-emergence at 20 g/ha ([2]; Triticum aestivum, 504 h, read-out: Post-emergence effect at 20 g/ha against TRZAS in %): 0%
- pest or weed control at 320 g/ha ([5]; Ipomoea purpurea, 504 h, 320 g/ha, read-out: Post-emergence effect against PHBPU in %): 80%
- plant injury at 20 g/ha ([3]; Zea mays, 504 h, 20 g/ha, read-out: Post-emergence effect at 20 g/ha against ZEAMX in %): 0%
- plant injury at 80 g/ha ([3]; Zea mays, 504 h): 10%
- plant injury at 320 g/ha ([3]; Zea mays, 504 h, 320 g/ha, read-out: Post-emergence effect at 320 g/ha against ZEAMX in %): 20%

SMILES: COC(=O)C(OC)Oc1nn(-c2cccc(Cl)c2F)c(-c2cncc(F)c2)c1Br (stereo not shown) [Example I-17]
- Post-emergence effect against POLCO in % ([6]; 80 g/ha): 80%
- Post-emergence effect against POLCO in % ([6]; 320 g/ha): 80%
- Post-emergence effect against DIGSA ([7]; 80 g/ha): 80%
- Post-emergence effect against DIGSA ([7]; 320 g/ha): 90%
- Post-emergence effect against ECHCG in % ([8]; 80 g/ha): 80%
- Post-emergence effect against ECHCG in % ([8]; 320 g/ha): 90%
- Post-emergence effect against AMARE ([9]; 20 g/ha): 80%
- Post-emergence effect against AMARE ([9]; 80 g/ha): 80%
- Post-emergence effect against AMARE ([9]; 320 g/ha): 80%
- Post-emergence effect against SETVI in % ([10]; 80 g/ha): 80%
- Post-emergence effect against SETVI in % ([10]; 320 g/ha): 90%
- Post-emergence effect against VERPE in % ([11]; 20 g/ha): 80%
- Post-emergence effect against VERPE in % ([11]; 80 g/ha): 80%
- Post-emergence effect against VERPE in % ([11]; 320 g/ha): 90%
- Post-emergence effect against ORYSA ([1]; 20 g/ha): 0%
- Post-emergence effect against ORYSA ([1]; 80 g/ha): 20%
- Post-emergence effect against VIOTR in % ([4]; 20 g/ha): 90%
- Post-emergence effect against VIOTR in % ([4]; 80 g/ha): 90%
- Post-emergence effect against VIOTR in % ([4]; 320 g/ha): 90%
- Post-emergence effect at 20 g/ha against TRZAS in % [2]: 10%
- Post-emergence effect against LOLRI in % [12]: 80%
- Post-emergence effect against AVEFA [13]: 90%
- Post-emergence effect against PHBPU in % ([5]; 20 g/ha): 90%
- Post-emergence effect against PHBPU in % ([5]; 80 g/ha): 90%
- Post-emergence effect against PHBPU in % ([5]; 320 g/ha): 90%
- Post-emergence effect against MATIN in % ([14]; 20 g/ha): 80%
- Post-emergence effect against MATIN in % ([14]; 80 g/ha): 80%
- Post-emergence effect against MATIN in % ([14]; 320 g/ha): 80%
- Post-emergence effect against ALOMY [15]: 90%
- Post-emergence effect against ABUTH ([16]; 20 g/ha): 80%
- Post-emergence effect against ABUTH ([16]; 80 g/ha): 90%
- Post-emergence effect against ABUTH ([16]; 320 g/ha): 90%
